Data set [1] concerns white blood cells in peripheral blood. The data set can be described thus: Haematology (WBC, neutrophil granulocytes, lymphocytes) in AIA rats. It counts as in vivo, rat. As for the experimental part: For the blood withdrawal the animals were narcotized briefly, the tail was disinfected and the tail vein was punctured with a cannula, 50 μl of blood were withdrawn with a heparin coated pipette and mixed with 5 μl of a stabilising agent (CPD) and 1 μl heparin (1.5 U/μl diluted 1:4 in 0.9% NaCl).
White Blood Cells (WBC) were counted with a Coulter Counter in the automatic mode.
Blood samples were taken regularly for monitoring of hematological parameters. Haematological parameters were assessed in all animals weekly before induction, at day of induction and 10 days after induction (days −21, −14, −7, 0 and 10). […] Absolute counts of white blood cells (WBC), neutrophil granulocytes and lymphocytes were analyzed among others, the last two also stated in percentage of total WBC. EDTA whole blood of seven individuals from both vehicle and cgtx-544 peptide therapy group was measured with Sysmex XT-2000i.
For screening the state of health of all individuals, complete haemograms were used again. EDTA whole blood of seven individuals from both MTX high-dose and low-dose therapy groups were measured with Sysmex XT-2000i.V weekly before induction, at day of induction and 4 and 7 days after induction (day −21, −14, −7, 0, 4 and 7; MTX low-dose therapy group additionally on day −3, when i.v. application started).

The subject of data set [2] is antigen induced arthritis (AIA). The data set can be described thus: Antigen induced arthritis (AIA) rat model, knee joint swelling. It is filed as in vivo. Conditions: for reduction of knee swelling relative to the vehicle control group: 24 h after arthritis induction; for difference of absolute increase of knee swelling (induced minus un-induced knee): one day after arthritis induction.

The next data set is described as follows: in vivo. The note with it: rat. It is filed as in vivo. As for the experimental part:
FIG. 34 Decrease of cgtx-544(Sing) in the serum of treated rats after i.v. injection. The concentration of unbound circulating cgtx-544(Sing) was calculated on the basis of a standard curve. Standard error of the mean is depicted in the error bars (n=6).
Rats received i.v. injections of cgtx-544(Sing) (750 μg/kg BW). Blood was withdrawn at time points 0, 1, 10 and 60 minutes. Subsequently, serum was prepared from blood samples. The cgtx-544 content in these samples was analyzed electrophysiologically by measuring the blocking effect on Kv1.3 channels expressed in CHO cells. […] In order to study the amount of unbound cgtx-544(Sing) in the rat, the amount of cgtx-544(Sing) present in the circulating blood at the time points referred above was calculated through a calibration curve. This calibration curve was obtained by adding known quantities of cgtx-544(Sing) to blood serum and subsequent electrophysiological measurements on Kv1.3 channels. The block of Kv1.3 currents by these spiked samples was similar to that obtained with cgtx-544(Sing) in the absence of serum (data not shown).

Another data set concerns the target T1, Kv1.2 (Homo sapiens, UniProt P16389).
T1 construct: expressed in transfected cells; host or cells: CHO cells, stably transfected
As to the kind of experiment: Patchliner electrophysiology on Kv1.2 in stably transfected CHO cells (Example 8). It counts as cell-based. On the procedure:
(§1) Ion channels were expressed via Baculovirus (Kv1.1-, Kv1.3- and Kv1.5-constructs) infected Sf21 cells or stably transfected CHO cells (Kv1.2) as described in Examples 1, 2, and 4. Electrophysiological analysis was performed on the automated patch clamp device “Patchliner” (Nanion Technologies, Munich, Germany). The Patchliner is based on a planary patch clamp method borosilicate glass chip (NPC-16) instead of a glass pipettes. The Patchliner is able to record four cells at the same time. All channel recordings were made in the whole cell mode. Data recordings were performed with the PatchMaster software (HEKA Electronics, Lambrecht/Pfalz, Germany). Visualization of experimental results was realized with IGOR software (Wavemetrics, USA). Average data are presented as mean±standard error of the mean (SEM).
(§2) Test compounds were used as concentrated stock solutions (mostly 1.5 μg/μl). Stock solutions were diluted in buffer to the required final concentrations.

The next data set addresses T2, Kv1.1 (Homo sapiens, UniProt Q09470).
T2 construct: expressed in transfected cells; host or cells: Sf21 insect cells, baculovirus infection
The data set can be described thus: Patchliner electrophysiology on Kv1.1 in Baculovirus infected Sf21 cells (Example 8). It counts as cell-based. As for the experimental part: as §1, §2

For data set [3], the target named is T3, Kv1.3 (Homo sapiens, UniProt P22001). As to the kind of experiment: Kv1.3 block with prolonged incubation times. It is filed as cell-based. Conditions: incubation about 20 min, after folding and purification.
The target in data set [4] is T3, Kv1.3. The data set can be described thus: Patchliner electrophysiology of cgtx-544(Sing) on Kv1.3 in Baculovirus infected Sf21 cells (Example 8). It counts as cell-based. As for the experimental part: as §1, §2
After chemical synthesis (see Example 7) the peptide was folded by oxidation with atmospheric oxygen and the correctly folded (biologically active) peptide fraction was purified by preparative HPLC. This purified cgtx-544 peptide was designated cgtx-544(Sing) for singular peak.
(In general: The patch-clamp technique gives a direct electrical read-out from membranes.)

For the next data set, the target named is T4, Kv1.5 (Homo sapiens, UniProt P22460).
T4 construct: expressed in transfected cells; host or cells: Sf21 insect cells, baculovirus infection
The data set can be described thus: Patchliner electrophysiology on Kv1.5 in Baculovirus infected Sf21 cells (Example 8). Conditions: 10 μM solution. It counts as cell-based.

For data set [5], the target named is T3, Kv1.3. As to the kind of experiment: Decay of cgtx-544(Sing) in human blood serum at 37° C., blocking activity on Kv1.3 (Example 9). It is filed as in vitro ADME. As for the experimental part: FIG. 33 Decay of cgtx-544(Sing) in human serum at 37° C. A known amount of cgtx-544(Sing) was added to human blood serum from 3 blood donors and incubated at 37° C. for a period of 57 days. The blocking activity of the peptide was measured on Kv1.3 channels over this period. The peptide remains stable for 16 h, and it can still be detected after 45 days. At 57 days the blocking effect is no longer visible. Decay is depicted as the reduction of concentration of cgtx-544 (Sing) as determined by: C(t)=IC50 (t0)/IC50(t).C0. The decay is fitted by a simple decay curve: C (t)=C0.2(−t/t1/2), where C0 is the initial concentration of peptide in solution, t0 is the 0 min incubation at 37° C. point, and t1/2 is the half-life.
Further to the experiments described in Example 3, the stability of the cgtx-544 peptide was tested in blood serum samples under in vitro conditions. Thus, the stability of cgtx-544(Sing) in human blood serum was determined by the addition of a known quantity of cgtx-544(Sing) to human blood serum and a subsequent incubation at 37° C. The blocking activity of ctx-544(Sing) was measured on Kv1.3 channels over a period of 57 days. cgtx-544(Sing) is extremely stable in human blood serum. Its activity remains constant for at least 16 hours, and decays slowly until no more peptide blocking effect is detectable after 57 days.

Data set [6] is described as follows: Solubility and stability in 0.9% NaCl solution. It counts as physicochemical. On the procedure:
This peptide solution is being folded by oxidation (formation of disulfide bonds). The folding method is based on bond formation in phosphate buffer at pH 8.3 in the presence of atmospheric oxygen. […] Thus, after the folding reaction the active peptide (retention time 12.77 min) was purified from the cgtx-544 mixture of folded and partially folded peptides by preparative HPLC. After this purification step the active peptide—referred to as cgtx-544(Sing)—usually has an estimated purity of more than 95%.

Setting [7] is: high-dose 1 mg/kg 1× weekly s.c., day 7.
Where [8] appears, read: high-dose 1 mg/kg 1× weekly s.c., day −7.
[9] abbreviates: high-dose 1 mg/kg 1× weekly s.c., seven days after induction.
Setting [10] is: low-dose 100 μg/kg 1× daily i.v., day 7.
[11] abbreviates: high-dose 1 mg/kg 1× weekly s.c.
[12] abbreviates: low-dose 100 μg/kg 1× daily i.v.

T3 sequence (P22001 whole entry): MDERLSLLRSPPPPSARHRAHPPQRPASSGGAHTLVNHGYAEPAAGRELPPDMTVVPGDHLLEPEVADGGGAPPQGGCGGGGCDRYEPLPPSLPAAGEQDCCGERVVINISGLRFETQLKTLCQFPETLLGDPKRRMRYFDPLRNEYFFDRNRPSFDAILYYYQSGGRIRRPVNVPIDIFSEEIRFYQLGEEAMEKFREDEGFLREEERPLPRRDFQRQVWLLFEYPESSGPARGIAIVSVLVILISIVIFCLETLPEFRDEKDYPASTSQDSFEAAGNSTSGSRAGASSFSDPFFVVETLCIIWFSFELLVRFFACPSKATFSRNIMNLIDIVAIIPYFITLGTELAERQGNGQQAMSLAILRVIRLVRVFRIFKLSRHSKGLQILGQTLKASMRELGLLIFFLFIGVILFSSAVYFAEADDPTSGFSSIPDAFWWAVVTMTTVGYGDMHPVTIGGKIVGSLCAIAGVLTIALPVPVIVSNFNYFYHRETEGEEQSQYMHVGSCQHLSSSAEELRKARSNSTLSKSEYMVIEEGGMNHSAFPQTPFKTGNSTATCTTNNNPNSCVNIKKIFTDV
T1 sequence (P16389 whole entry): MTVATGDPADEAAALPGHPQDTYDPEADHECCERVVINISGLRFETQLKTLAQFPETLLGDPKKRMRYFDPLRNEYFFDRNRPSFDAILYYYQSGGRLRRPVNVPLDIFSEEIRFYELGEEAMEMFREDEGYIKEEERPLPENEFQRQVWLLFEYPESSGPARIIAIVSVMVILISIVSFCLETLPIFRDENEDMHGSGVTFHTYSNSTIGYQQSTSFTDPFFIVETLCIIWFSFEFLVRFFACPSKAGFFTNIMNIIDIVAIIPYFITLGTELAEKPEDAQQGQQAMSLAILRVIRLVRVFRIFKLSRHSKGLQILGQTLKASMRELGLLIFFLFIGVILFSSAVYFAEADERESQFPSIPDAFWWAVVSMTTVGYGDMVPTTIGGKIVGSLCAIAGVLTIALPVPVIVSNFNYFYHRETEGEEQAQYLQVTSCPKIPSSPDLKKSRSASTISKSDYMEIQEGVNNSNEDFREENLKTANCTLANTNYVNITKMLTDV
T2 sequence (Q09470 whole entry): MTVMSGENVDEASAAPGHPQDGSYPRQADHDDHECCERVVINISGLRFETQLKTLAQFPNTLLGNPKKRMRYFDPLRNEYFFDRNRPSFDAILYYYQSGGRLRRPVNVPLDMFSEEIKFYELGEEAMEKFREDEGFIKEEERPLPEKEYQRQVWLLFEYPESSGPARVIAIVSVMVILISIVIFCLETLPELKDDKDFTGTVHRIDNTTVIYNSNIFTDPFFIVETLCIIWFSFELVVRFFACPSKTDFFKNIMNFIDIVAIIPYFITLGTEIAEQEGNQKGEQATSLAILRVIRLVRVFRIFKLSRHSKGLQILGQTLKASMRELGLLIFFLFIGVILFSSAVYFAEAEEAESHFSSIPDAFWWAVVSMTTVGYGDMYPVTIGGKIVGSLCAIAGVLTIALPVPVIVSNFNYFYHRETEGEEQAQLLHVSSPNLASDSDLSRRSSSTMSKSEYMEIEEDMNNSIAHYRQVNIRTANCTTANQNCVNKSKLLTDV
T4 sequence (P22460 whole entry): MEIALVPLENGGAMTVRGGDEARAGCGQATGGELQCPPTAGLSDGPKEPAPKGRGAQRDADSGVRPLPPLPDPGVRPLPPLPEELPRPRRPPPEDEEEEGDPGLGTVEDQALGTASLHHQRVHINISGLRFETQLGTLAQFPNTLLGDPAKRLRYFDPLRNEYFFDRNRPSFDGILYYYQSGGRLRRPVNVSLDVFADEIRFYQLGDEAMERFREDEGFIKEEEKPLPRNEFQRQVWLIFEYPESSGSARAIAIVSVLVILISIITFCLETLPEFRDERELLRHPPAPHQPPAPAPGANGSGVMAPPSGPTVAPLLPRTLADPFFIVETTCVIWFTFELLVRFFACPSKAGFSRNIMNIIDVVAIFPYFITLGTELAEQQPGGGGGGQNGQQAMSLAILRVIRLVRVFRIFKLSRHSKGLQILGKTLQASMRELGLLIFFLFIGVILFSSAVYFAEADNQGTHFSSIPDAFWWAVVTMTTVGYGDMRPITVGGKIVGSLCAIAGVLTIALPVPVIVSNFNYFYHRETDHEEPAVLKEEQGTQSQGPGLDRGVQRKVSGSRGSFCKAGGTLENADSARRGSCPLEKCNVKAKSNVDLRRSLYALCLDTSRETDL

Take `CN(Cc1cnc2nc(N)nc(N)c2n1)c1ccc(C(=O)N[C@@H](CCC(=O)O)C(=O)O)cc1` [MTX, Methotrexate]: in [1] (setting [7]), the WBC count is 14.68±2.15 ×10^3/μl, the absolute lymphocyte count is listed as 11.38±1.15 ×10^3/μl and the lymphocyte percentage is 78.16±7.20 % of WBC. Also, in [1] (setting [8]), the WBC count is reported as 20.79±5.96 ×10^3/μl, the absolute lymphocyte count is 11.68±2.8 ×10^3/μl, the “absolute neutrophil granulocyte count” value is reported as 7.54±3.19 ×10^3/μl and the lymphocyte percentage is 57.01±6.45 % of WBC. The relative neutrophils in data set [1] (setting [8]) was 35.46±7.08 % of WBC. Further, in [1] (setting [9]), the “absolute neutrophil granulocyte count” value is reported as 1.94±1.1 ×10^3/μl and the relative neutrophils was 12.63±6.1 % of WBC. Moreover, in data set [1] (setting [10]), the WBC count is given as 6.63±1.37 ×10^3/μl, the absolute lymphocyte count is 6.14±1.11 ×10^3/μl, the “absolute neutrophil granulocyte count” value was 0.33±0.36 ×10^3/μl and the “decrease of WBC counts compared to the beginning of the experiment” value is given as roughly 50%. Besides, in data set [1] (setting [10]), the lymphocyte percentage is listed as 93.13±4.66 % of WBC and the relative neutrophils was 4.41±4.63 % of WBC. For the same compound, the “effect in the haemogram compared to the vehicle control group” value in [1] (low-dose treated individuals, seven days after arthritis induction) is “reduction of WBC count, neutrophil granulocyte count and lymphocyte count”. In [2] (setting [11]), the “relative difference of knee swelling (normalized)” value amounted to 0.39±0.16, the “reduction of knee swelling relative to the vehicle control group” value was 15% and the “difference of absolute increase of knee swelling (induced minus un-induced knee)” value worked out at 3.17±1.26 mm. In data set [2] (setting [12]), the “relative difference of knee swelling (normalized)” value is given as 0.43±0.11, the “reduction of knee swelling relative to the vehicle control group” value is 7% and the “difference of absolute increase of knee swelling (induced minus un-induced knee)” value was 3.45±0.87 mm.
The term half-life denotes the time in which the quantity being followed falls by half. As usually defined, the IC50 is the concentration needed to halve the response being measured. A low value points to inhibition by little substance. With `CC[C@H](C)[C@H](NC(=O)[C@@H](N)[C@@H](C)O)C(=O)N[C@H](C(=O)N[C@@H](CC(N)=O)C(=O)N[C@H](C(=O)N[C@@H](CCCCN)C(=O)N[C@H]1CSSC[C@@H]2NC(=O)[C@H](CCCCN)NC(=O)CNC(=O)[C@H](Cc3ccc(O)cc3)NC(=O)[C@@H]3CCCN3C(=O)[C@@H]3CSSC[C@@H](C(=O)O)NC(=O)[C@H](CCCNC(=N)N)NC(=O)[C@H](CC(N)=O)NC(=O)[C@@H]4CSSC[C@H](NC(=O)[C@@H]5CCCN5C(=O)[C@@H]5CCCN5C(=O)[C@H](CC(C)C)NC(=O)[C@H](CSSC[C@H](NC(=O)[C@H](CCCCN)NC(=O)[C@H](CCCNC(=N)N)NC(=O)[C@H](CC(N)=O)NC(=O)[C@H](CCSC)NC2=O)C(=O)N[C@@H](CCCCN)C(=O)N4)NC(=O)[C@H](CCC(N)=O)NC(=O)[C@H](CCCCN)NC(=O)[C@@H]2CCCN2C(=O)[C@H](CO)NC(=O)[C@H]([C@@H](C)O)NC1=O)C(=O)N[C@@H](CCCCN)C(=O)N[C@@H](C)C(=O)N[C@@H](CCC(N)=O)C(=O)N[C@@H]([C@@H](C)O)C(=O)NCC(=O)N3)C(C)C)[C@@H](C)CC` [cgtx-544(Sing)], in the data set “in vivo” (in vivo, iv, 750 ug/kg, 750 μg/kg BW), the half-life was roughly 26 min. In addition, the “blocking activity of serum sample relative to the 1 minute sample” value in “in vivo” (750 μg/kg BW i.v., 60 minutes) amounted to 10%. Besides, the “approximate concentration in the circulating blood” value in “in vivo” (i.v., 750 μg/kg BW) is given as roughly 62 nM. For the same compound, the IC50 at Kv1.2 was 2500 nM; at Kv1.1, roughly 6000 nM; at Kv1.3 [3], roughly 0.9 nM; on Kv1.3 [4], 6.9 nM. The “effect on Kv1.2 currents” value was “did not alter” at Kv1.2 (100 nM solution, stably transfected CHO cells) and “only slightly reduced currents” on Kv1.2 (concentrations >1 μM). Also, the “reduction of Kv1.5 currents” value at Kv1.5 is listed as “did not induce a significant reduction”. On Kv1.3 [5] (human blood serum, 37° C.), the “time after which the peptide can still be detected” value worked out at 45 days. The “time at which blocking effect is no longer visible” value at Kv1.3 [5] (human blood serum, 37° C.) was determined as 57 days. On Kv1.3 [5] (human serum at 37° C.), the “period for which 50% activity was retained” value stood at 5 days. For the same compound, in data set [6] (0.9% NaCl solution), the solubility result is “highly soluble”. Further, the stability in solution entry in [6] (0.9% NaCl solution at RT and 4° C.) is “up to several weeks”.

The values above are taken from patent US10800815B2, “Kv1.3 potassium channel antagonists” (cgtx-Peptide Development GmbH, priority 2014, dated 2020).
